This is an account of results in patent publication US11312723B2, “Pyranopyrazole and pyrazolopyridine immunomodulators for treatment of autoimmune diseases” (The Rockefeller University, priority 2017, dated 2022).

Experiment [1] concerns the target Human FXIIa (Homo sapiens (Human), UniProt P00748). The experiment is described as follows: Factor XIIa (FXIIa) inhibitory activity, chromogenic substrate (Pefachrome XIIa) cleavage. The conditions noted are these: 10 min pre-incubation, Pefachrome XIIa 400 μM. In kind it is biochemical.
Experiment [2] deals with Human alpha-thrombin (Homo sapiens (Human), UniProt P00734). Description: Thrombin counterscreen for selectivity, fluorogenic substrate cleavage. The experiment is classed as biochemical. The conditions noted are these: 10 min pre-incubation, Boc-Val-Pro-Arg-AMC 20 μM. On the technique in general: Counterscreens check selectivity or assay interference.
The subject of experiment [3] is Collagen-Induced Arthritis (CIA) in DBA/1 Mice. The experiment is described as follows: Collagen-Induced Arthritis (CIA) in DBA/1 mice, model of rheumatoid arthritis. In kind it is in vivo, mouse. The source says: For in vivo confirmation of efficacy, Example 35 was studied in a model of rheumatoid arthritis. Collagen-Induced Arthritis (CIA) in DBA/1 Mice is one of the most commonly used animal models of human rheumatoid arthritis. The joint inflammation which develops in CIA resembles inflammation in human patients with rheumatoid arthritis. Therapeutic agents that reduce rheumatoid arthritis in people (e.g. NSAIDs, corticosteroids, methotrexate, etc) are also efficacious in CIA, and efficacy in the mouse CIA model has excellent predictive value for efficacy in rheumatoid arthritis. CIA is induced by immunization with type II collagen emulsified in Complete Freund's Adjuvant, followed by a booster immunization with type II collagen emulsified in incomplete Freund's Adjuvant. Three to four weeks after immunization, inflammation develops in mouse paws, Treatment is initiated at, the time of immunization and continues for 6 weeks. […] CIA is scored blind, by a person unaware of both treatment and of previous scores for each animal. The animal's score is the total of all four paw scores on scale of 0-16, where each paw is scored as follows: 0 Normal paw; 1 One toe inflamed and swollen; 2 More than one toe, but not entire paw, inflamed and swollen, or mild swelling of entire paw; 3 Entire paw inflamed and swollen; 4 Very inflamed and swollen paw or ankylosed paw.

Human FXIIa, sequence (P00748 373-615): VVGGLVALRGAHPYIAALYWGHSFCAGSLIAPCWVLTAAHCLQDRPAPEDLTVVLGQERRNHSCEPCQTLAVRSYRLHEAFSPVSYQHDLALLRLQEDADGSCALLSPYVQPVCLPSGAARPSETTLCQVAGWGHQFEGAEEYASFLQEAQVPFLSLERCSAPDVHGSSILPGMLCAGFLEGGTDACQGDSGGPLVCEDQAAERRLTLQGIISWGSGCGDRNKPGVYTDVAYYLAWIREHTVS
Human FXIIa, sequence (P00748 20-372 partner): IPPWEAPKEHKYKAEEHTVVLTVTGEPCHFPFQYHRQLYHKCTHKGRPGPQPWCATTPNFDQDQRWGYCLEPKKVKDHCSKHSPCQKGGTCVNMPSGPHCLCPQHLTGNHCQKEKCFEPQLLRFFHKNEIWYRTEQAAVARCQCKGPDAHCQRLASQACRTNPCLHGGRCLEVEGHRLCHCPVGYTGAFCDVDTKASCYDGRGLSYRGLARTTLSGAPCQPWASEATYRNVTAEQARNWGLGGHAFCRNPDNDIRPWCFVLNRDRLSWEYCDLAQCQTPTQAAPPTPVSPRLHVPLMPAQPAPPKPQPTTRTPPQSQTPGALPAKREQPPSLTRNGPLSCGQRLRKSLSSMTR

For orientation: IC50 means the midpoint of a concentration-inhibition curve. A low value points to greater potency in that assay. On to `Cc1cccc2c1NCCC2C(=O)n1nc2c(c1N)CCN(S(C)(=O)=O)C2` (single isomer, unassigned) [Example 35, (S*)-(3-amino-6-(methylsulfonyl)-4,5,6,7-tetrahydropyrazolo[3,4-c]pyridine-2-yl)(8-methyl-1,2,3,4-tetrahydroquinolin-4-yl)methanone], for which the values for the IC50 in experiment [1] and in experiment [2] were 0.02 µM and 18 µM, respectively. In addition, the “Effect on disease phenotype compared to placebo” value in experiment [3] (CIA model) is listed as “significantly ameliorated the disease phenotype compared to placebo”. In experiment [3] (scale 0-16, p value 0.0175 vs vehicle), the “Maximum CIA score ± SD” value was 5.6 ± 3.7.

Consider `CCc1cc(C)c2c(c1)C(C(=O)n1nc3c(c1N)CCN(S(C)(=O)=O)C3)CCN2` (single isomer, unassigned) [Example 69, (3-amino-6-(methylsulfonyl)-4,5,6,7-tetrahydropyrazolo[3,4-c]pyridin-2-yl)((S*)-6-ethyl-8-methyl-1,2,3,4-tetrahydroquinolin-4-yl)methanone], for which the IC50 came to 0.01 µM in experiment [1] and 40 µM in experiment [2].

Consider `Nc1c2c(nn1C(=O)[C@H]1CCNc3ccc(F)cc31)COCC2` (single isomer, unassigned) [Example 196, (S*)-(3-amino-4,5-dihydropyrano[3,4-c]pyrazol-2(7H)-yl)(6-fluoro-1,2,3,4-tetrahydro-quinolin-4-yl)methanone], for which the IC50 in experiment [1] was determined as 0.08 µM; in experiment [2] it was 95 µM.

With `Cn1cc2c(c1)C(C(=O)n1nc3c(c1N)CCN(S(C)(=O)=O)C3)CCC2` (stereo not shown) [Example 26, (3-amino-6-(methylsulfonyl)-4,5,6,7-tetrahydropyrazolo[3,4-c]pyridin-2-yl)(2-methyl-4,5,6,7-tetrahydro-2H-isoindol-4-yl)methanone], the values for the IC50 in experiment [1] and in experiment [2] were 0.15 µM and 4.5 µM, respectively.

For `Cc1ccc2c(c1)C(C(=O)n1nc3c(c1N)CCN(S(C)(=O)=O)C3)CCN2` (stereo not shown) [Example 12, (3-amino-6-(methylsulfonyl)-4,5,6,7-tetrahydropyrazolo[3,4-c]pyridin-2-yl)(6-methyl-1,2,3,4-tetrahydroquinolin-4-yl)methanone], the IC50 in experiment [1] is 0.3 µM; in experiment [2], above 55 µM.

`Nc1c2c(nn1C(=O)C1CCNc3ccc(F)cc31)CN(S(=O)(=O)c1cccnc1)CC2` (stereo not shown) [Example 157, (3-amino-6-(pyridin-3-ylsulfonyl)-4,5,6,7-tetrahydro-pyrazolo[3,4-c]pyridin-2-yl)(6-fluoro-1,2,3,4-tetrahydro-quinolin-4-yl)methanone]: the figures for the IC50 in experiment [1] and in experiment [2] were 0.7 µM and 15 µM, respectively.

Regarding `Nc1c2c(nn1C(=O)C1CCNc3ccc(F)cc31)COCC2` (stereo not shown) [Example 194, (3-amino-4,5-dihydropyrano[3,4-c]pyrazol-2(7H)-yl)(6-fluoro-1,2,3,4-tetrahydro-quinolin-4-yl)methanone], the values for the IC50 in experiment [1] and in experiment [2] were 0.16 µM and 70 µM, respectively.

On to `CC(C)c1ccc2c(c1)C(C(=O)n1nc3c(c1N)CCN(S(C)(=O)=O)C3)CCN2` (stereo not shown) [Example 45, (3-amino-6-(methylsulfonyl)-4,5,6,7-tetrahydropyrazolo[3,4-c]pyridin-2-yl)(6-isopropyl-1,2,3,4-tetrahydroquinolin-4-yl)methanone], for which the values for the IC50 in experiment [1] and in experiment [2] were 2.2 µM and 45 µM, respectively.

In the case of `CC(C)(C)S(=O)(=O)N1CCc2c(nn(C(=O)C3CCNc4ccc(F)cc43)c2N)C1` (stereo not shown) [Example 138, (3-amino-6-(tert-butylsulfonyl)-4,5,6,7-tetrahydro-pyrazolo[3,4-c]pyridin-2-yl)(6-fluoro-1,2,3,4-tetrahydro-quinolin-4-yl)methanone], the IC50 in experiment [1] is 0.08 µM; in experiment [2], above 100 µM.

As for `CC(C)S(=O)(=O)N1CCc2c(nn(C(=O)C3CCNc4ccc(F)cc43)c2N)C1` (stereo not shown) [Example 136, (3-amino-6-(isopropyl-sulfonyl)-4,5,6,7-tetrahydro-pyrazolo[3,4-c]pyridin-2-yl)(6-fluoro-1,2,3,4-tetrahydro-quinolin-4-yl)methanone], the IC50 in experiment [1] was 0.08 µM; in experiment [2] it was above 55 µM.

On to `CCc1cc(C)c2c(c1)C(C(=O)n1nc3c(c1N)CCN(S(C)(=O)=O)C3)CCN2` (stereo not shown) [Example 55, (3-amino-6-(methylsulfonyl)-4,5,6,7-tetrahydropyrazolo[3,4-c]pyridin-2-yl)(6-ethyl-8-methyl-1,2,3,4-tetrahydroquinolin-4-yl)methanone], for which the IC50 in experiment [1] is 0.04 µM; in experiment [2], above 70 µM.

With `CNS(=O)(=O)N1CCc2c(N)nn(C(=O)C3CCNc4ccccc43)c2C1` (stereo not shown) [Example 112, 3-amino-N-methyl-1-(1,2,3,4-tetrahydro-quinoline-4-carbonyl)-4,5-dihydro-1H-pyrazolo[3,4-c]pyridine-6(7H)-sulfonamide], the IC50 in experiment [1] and in experiment [2] was above 70 µM in each case.

For `CC(=O)N1CCc2nn(C(=O)C3CCNc4ccccc43)c(N)c2C1` (stereo not shown) [Example 95, 1-(3-amino-2-(1,2,3,4-tetrahydro-quinoline-4-carbonyl)-6,7-dihydro-2H-pyrazolo[4,3-c]pyridin-5(4H)-yl)ethanone], the 50% inhibitory concentration (IC50) in experiment [1] is 0.7 µM; in experiment [2], above 50 µM.

As for `CCS(=O)(=O)N1CCc2c(nn(C(=O)C3CCNc4ccccc43)c2N)C1` (stereo not shown) [Example 125, (3-amino-6-(ethylsulfonyl)-4,5,6,7-tetrahydro-pyrazolo[3,4-c]pyridin-2-yl)(1,2,3,4-tetrahydro-quinolin-4-yl)methanone], the figures for the IC50 in experiment [1] and in experiment [2] were 0.25 µM and 100 µM, respectively.

Take `CS(=O)(=O)N1CCc2c(nn(C(=O)C3CCNc4ccc(C(F)(F)F)cc43)c2N)C1` (stereo not shown) [Example 24, (3-amino-6-(methylsulfonyl)-4,5,6,7-tetrahydropyrazolo[3,4-c]pyridin-2-yl)(6-(trifluoromethyl)-1,2,3,4-tetrahydroquinolin-4-yl)methanone]: the IC50 in experiment [1] turned out to be 0.1 µM; in experiment [2], 25 µM.

As for `CS(=O)(=O)N1CCc2c(nn(C(=O)[C@H]3CCNc4ccccc43)c2N)C1` (single isomer, unassigned) [Example 135, (S*)-(3-amino-6-(methylsulfonyl)-4,5,6,7-tetrahydro-pyrazolo[3,4-c]pyridin-2-yl)(1,2,3,4-tetrahydro-quinolin-4-yl)methanone], the IC50 in experiment [1] came out at 0.08 µM; in experiment [2] it was 28 µM.
